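Five compound concentrations were applied to cells in 96-well plates for 48 hours; endpoints were derived by simple linear interpolation of the resulting dose-response curve. The concentration for 50% growth inhibition is given as GI50.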 Activity calls are given as the source filed them. Rule as the data show it: active = GI50 up to about 1.1 µM and inactive = higher.
What was measured:
Assay in all cases: DTP human tumour cell line panel, 48 h
[1] = tested on: 786-0
[2] = tested on: A549
[3] = tested on: ACHN
[4] = tested on: CCRF-CEM
[5] = tested on: COLO 205
[6] = tested on: DLD-1
[7] = tested on: DMS-273
[8] = tested on: EKVX
[9] = tested on: HCC 2998
[10] = tested on: HCT-116
[11] = tested on: HCT-15
[12] = tested on: HL-60
[13] = tested on: HOP-62
[14] = tested on: HOP-92
[15] = tested on: HT-29
[16] = tested on: IGROV-1
[17] = tested on: K562
[18] = tested on: KM-20L2
[19] = tested on: KM12
[20] = tested on: LOX IMVI
[21] = tested on: LXFL 529
[22] = tested on: M14
[23] = tested on: M19-MEL
[24] = tested on: MOLT-4
[25] = tested on: Malme-3M
[26] = tested on: NCI-H226
[27] = tested on: NCI-H23
[28] = tested on: NCI-H460
[29] = tested on: NCI-H522
[30] = tested on: OVCAR-3
[31] = tested on: OVCAR-4
[32] = tested on: OVCAR-8
[33] = tested on: RXF 393
[34] = tested on: SF-268
[35] = tested on: SF-295
[36] = tested on: SF-539
[37] = tested on: SK-MEL-28
[38] = tested on: SK-MEL-2
[39] = tested on: SK-MEL-5
[40] = tested on: SK-OV-3
[41] = tested on: SN12C
[42] = tested on: SNB-19
[43] = tested on: SNB-75
[44] = tested on: SNB-78
[45] = tested on: SR
[46] = tested on: SW-620
[47] = tested on: TK-10
[48] = tested on: U-251
[49] = tested on: UACC-257
[50] = tested on: UACC-62
[51] = tested on: UO-31
[52] = tested on: XF498
[53] = tested on: CAKI-1
[54] = tested on: DMS-114
[55] = tested on: OVCAR-5
[56] = tested on: RPMI-8226

CCCC(C)n1c(C)nc2c1C(=O)c1ccccc1C2=O (stereo not given)
GI50 [1]: 19.9 µM (inactive)
GI50 [2]: 21 µM (inactive)
GI50 [3]: 27.8 µM (inactive)
GI50 [4]: 30.3 µM (inactive)
GI50 [5]: 23.3 µM (inactive)
GI50 [6]: 8.43 µM (inactive)
GI50 [7]: 7.24 µM (inactive)
GI50 [8]: 43.6 µM (inactive)
GI50 [9]: 40.4 µM (inactive)
GI50 [10]: 5.52 µM (inactive)
GI50 [11]: 5.97 µM
GI50 [12]: 33.2 µM (inactive)
GI50 [13]: 20 µM (inactive)
GI50 [14]: 16.7 µM (inactive)
GI50 [15]: 17.3 µM (inactive)
GI50 [16]: 37.4 µM (inactive)
GI50 [17]: 8.57 µM (inactive)
GI50 [18]: 18.9 µM (inactive)
GI50 [19]: 22.9 µM (inactive)
GI50 [20]: 8.71 µM (inactive)
GI50 [21]: 12.7 µM (inactive)
GI50 [22]: 34.6 µM (inactive)
GI50 [23]: 12.6 µM (inactive)
GI50 [24]: 18.5 µM (inactive)
GI50 [25]: 23.8 µM (inactive)
GI50 [26]: 34.4 µM (inactive)
GI50 [27]: 15.6 µM (inactive)
GI50 [28]: 4.6 µM (inactive)
GI50 [29]: 23.1 µM (inactive)
GI50 [30]: 25.9 µM (inactive)
GI50 [31]: 36.1 µM (inactive)
GI50 [32]: 22.8 µM (inactive)
GI50 [33]: 20 µM (inactive)
GI50 [34]: 19.6 µM (inactive)
GI50 [35]: 23.7 µM (inactive)
GI50 [36]: 13 µM (inactive)
GI50 [37]: 33.7 µM (inactive)
GI50 [38]: 20.7 µM (inactive)
GI50 [39]: 13.3 µM (inactive)
GI50 [40]: 42.7 µM (inactive)
GI50 [41]: 29.9 µM (inactive)
GI50 [42]: 37 µM (inactive)
GI50 [43]: 19.5 µM (inactive)
GI50 [44]: 21.9 µM (inactive)
GI50 [45]: > 100 µM (inactive)
GI50 [46]: 37.7 µM (inactive)
GI50 [47]: 31 µM (inactive)
GI50 [48]: 12.2 µM (inactive)
GI50 [49]: 22.4 µM (inactive)
GI50 [50]: 6.78 µM (inactive)
GI50 [51]: 24.7 µM (inactive)
GI50 [52]: 20.8 µM (inactive)

CC1CN(c2ccc(Cl)cc2)CC(C)OC(=O)O1 (stereo not given)
GI50 [1]: > 100 µM (inactive)
GI50 [2]: > 100 µM (inactive)
GI50 [3]: > 100 µM (inactive)
GI50 [53]: > 100 µM (inactive)
GI50 [4]: > 100 µM (inactive)
GI50 [5]: > 100 µM (inactive)
GI50 [6]: > 100 µM (inactive)
GI50 [54]: > 100 µM (inactive)
GI50 [7]: > 100 µM (inactive)
GI50 [8]: > 100 µM (inactive)
GI50 [9]: > 100 µM (inactive)
GI50 [11]: > 100 µM
GI50 [12]: > 100 µM (inactive)
GI50 [13]: > 100 µM (inactive)
GI50 [14]: > 100 µM (inactive)
GI50 [15]: > 100 µM (inactive)
GI50 [16]: > 100 µM (inactive)
GI50 [17]: > 100 µM (inactive)
GI50 [18]: > 100 µM (inactive)
GI50 [19]: > 100 µM (inactive)
GI50 [20]: > 100 µM (inactive)
GI50 [21]: > 100 µM (inactive)
GI50 [22]: > 100 µM (inactive)
GI50 [23]: > 100 µM (inactive)
GI50 [25]: > 100 µM (inactive)
GI50 [26]: > 100 µM (inactive)
GI50 [27]: > 100 µM (inactive)
GI50 [28]: > 100 µM (inactive)
GI50 [29]: > 100 µM (inactive)
GI50 [30]: > 100 µM (inactive)
GI50 [31]: > 100 µM (inactive)
GI50 [55]: > 100 µM (inactive)
GI50 [32]: > 100 µM (inactive)
GI50 [56]: > 100 µM (inactive)
GI50 [33]: > 100 µM (inactive)
GI50 [34]: > 100 µM (inactive)
GI50 [35]: > 100 µM (inactive)
GI50 [36]: > 100 µM (inactive)
GI50 [37]: > 100 µM (inactive)
GI50 [38]: > 100 µM (inactive)
GI50 [39]: > 100 µM (inactive)
GI50 [40]: > 100 µM (inactive)
GI50 [41]: > 100 µM (inactive)
GI50 [42]: > 100 µM (inactive)
GI50 [43]: > 100 µM (inactive)
GI50 [44]: > 100 µM (inactive)
GI50 [45]: > 100 µM (inactive)
GI50 [46]: > 100 µM (inactive)
GI50 [47]: > 100 µM (inactive)
GI50 [48]: > 100 µM (inactive)
GI50 [49]: > 100 µM (inactive)
GI50 [50]: > 100 µM (inactive)
GI50 [51]: > 100 µM (inactive)
GI50 [52]: > 100 µM (inactive)

CC1=N/C(=C\c2ccc(C)cc2)C(=O)O1
GI50 [53]: > 100 µM (inactive)
GI50 [4]: > 100 µM (inactive)
GI50 [5]: > 100 µM (inactive)
GI50 [6]: > 100 µM (inactive)
GI50 [9]: > 100 µM (inactive)
GI50 [11]: > 100 µM
GI50 [14]: > 100 µM (inactive)
GI50 [15]: > 100 µM (inactive)
GI50 [16]: > 100 µM (inactive)
GI50 [17]: > 100 µM (inactive)
GI50 [18]: > 100 µM (inactive)
GI50 [19]: > 100 µM (inactive)
GI50 [21]: > 100 µM (inactive)
GI50 [22]: > 100 µM (inactive)
GI50 [23]: > 100 µM (inactive)
GI50 [24]: > 100 µM (inactive)
GI50 [25]: > 100 µM (inactive)
GI50 [27]: > 100 µM (inactive)
GI50 [29]: > 100 µM (inactive)
GI50 [30]: > 100 µM (inactive)
GI50 [31]: > 100 µM (inactive)
GI50 [55]: > 100 µM (inactive)
GI50 [32]: > 100 µM (inactive)
GI50 [33]: > 100 µM (inactive)
GI50 [35]: > 100 µM (inactive)
GI50 [37]: > 100 µM (inactive)
GI50 [38]: > 100 µM (inactive)
GI50 [39]: > 100 µM (inactive)
GI50 [40]: > 100 µM (inactive)
GI50 [41]: > 100 µM (inactive)
GI50 [42]: > 100 µM (inactive)
GI50 [44]: > 100 µM (inactive)
GI50 [45]: > 100 µM (inactive)
GI50 [46]: > 100 µM (inactive)
GI50 [47]: > 100 µM (inactive)
GI50 [48]: > 100 µM (inactive)
GI50 [50]: > 100 µM (inactive)
GI50 [51]: > 100 µM (inactive)
GI50 [52]: > 100 µM (inactive)
